This passage reports EC50 results from patent publication US20240247080A1, “GLP1/GIP/NPY2 RECEPTOR TRIPLE AGONISTS” (Boehringer Ingelheim International GmbH, priority 2022, published 2024).

Like-named read-outs stand apart in the source and are kept apart here. Starred links: 1 amine or outer side, 2 acyl side, 3 side chain; linkers in the order of their positions; H or OH if unused. Non-standard residues stand in square brackets, D forms with d. Groups on a side chain read outwards from the residue. *: point of attachment. C20 diacid = O=C(O)CCCCCCCCCCCCCCCCCCC(=O)*; γGlu = O=C(O)[C@H](CCC(=O)[*:2])N[*:1]; εLys = N[C@@H](CCCCN[*:1])C(=O)[*:2]; Aib = CC(C)(N)C(=O)O

What all share (format): cell-based
Details in all cases: CreLuc reporter gene assay

The target of experiment [1] is T1, hGLP1R (Homo sapiens, UniProt P43220).
T1 construct: expressed in transfected cells; host or cells: HEK-293 cells carrying a CRE-luciferase reporter gene
T1 sequence (P43220 24-463): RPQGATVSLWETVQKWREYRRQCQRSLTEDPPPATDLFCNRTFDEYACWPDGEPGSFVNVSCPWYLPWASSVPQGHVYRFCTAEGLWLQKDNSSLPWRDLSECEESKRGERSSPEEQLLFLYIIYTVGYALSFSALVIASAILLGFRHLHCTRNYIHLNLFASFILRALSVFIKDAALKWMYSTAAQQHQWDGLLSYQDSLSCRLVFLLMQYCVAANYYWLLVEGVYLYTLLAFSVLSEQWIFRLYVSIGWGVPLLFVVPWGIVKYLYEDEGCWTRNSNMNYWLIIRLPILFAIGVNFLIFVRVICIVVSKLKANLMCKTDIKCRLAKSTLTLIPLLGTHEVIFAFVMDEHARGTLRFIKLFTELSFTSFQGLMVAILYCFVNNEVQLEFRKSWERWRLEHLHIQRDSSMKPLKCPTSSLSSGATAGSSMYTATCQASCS
Briefly: hGLP1R CreLuc reporter gene assay in 0.5% and 100% plasma. Summed up: (§1)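 Agonist EC50s came from 8-concentration curves over four decades, fitted by non-linear variable-slope regression of CRE-driven luciferase luminescence. Cells were exposed 4 h at 37 °C, in buffer with 0.5% human plasma or in 100% plasma; GIPR was expressed in CHO cells, GLP-1R and NPY2R in HEK cells.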
(In general: In a reporter assay the amount or activity of a reporter protein is the signal.)

Experiment [2] concerns the target T2, hGIPR (Homo sapiens, UniProt P48546).
T2 construct: expressed in transfected cells; host or cells: CHO cells carrying a CRE-luciferase reporter gene
T2 sequence (P48546 22-466): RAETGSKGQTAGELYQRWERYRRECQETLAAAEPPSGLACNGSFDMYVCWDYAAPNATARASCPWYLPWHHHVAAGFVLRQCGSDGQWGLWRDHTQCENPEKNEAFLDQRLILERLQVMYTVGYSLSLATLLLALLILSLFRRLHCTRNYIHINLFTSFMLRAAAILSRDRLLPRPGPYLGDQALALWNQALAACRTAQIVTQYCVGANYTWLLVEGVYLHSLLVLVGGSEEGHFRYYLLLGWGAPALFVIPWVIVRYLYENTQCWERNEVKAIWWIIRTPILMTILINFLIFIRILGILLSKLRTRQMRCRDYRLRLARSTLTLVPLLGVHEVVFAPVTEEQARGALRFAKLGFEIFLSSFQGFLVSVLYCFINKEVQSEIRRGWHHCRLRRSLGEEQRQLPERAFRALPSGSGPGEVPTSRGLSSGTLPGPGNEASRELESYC
Briefly: hGIPR CreLuc reporter gene assay in 0.5% and 100% plasma. Summed up: as §1

For experiment [3], the target named is T3, hNPY2R (Homo sapiens, UniProt P49146).
T3 construct: expressed in transfected cells; host or cells: HEK-293 cells carrying a CRE-luciferase reporter gene
T3 sequence (P49146 1-381): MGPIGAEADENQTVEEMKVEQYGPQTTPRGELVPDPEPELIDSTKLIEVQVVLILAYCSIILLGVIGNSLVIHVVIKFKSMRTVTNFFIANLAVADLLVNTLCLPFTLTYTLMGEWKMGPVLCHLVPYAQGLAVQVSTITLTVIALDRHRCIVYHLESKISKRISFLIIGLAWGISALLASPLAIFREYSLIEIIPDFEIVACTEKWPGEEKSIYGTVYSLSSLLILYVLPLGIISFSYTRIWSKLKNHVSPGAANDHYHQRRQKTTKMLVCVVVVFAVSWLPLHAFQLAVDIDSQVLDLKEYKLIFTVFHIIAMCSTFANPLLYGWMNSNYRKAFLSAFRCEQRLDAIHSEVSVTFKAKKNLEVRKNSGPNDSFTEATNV
The experiment in a line: hNPY2R CreLuc reporter gene assay in 0.5% and 100% plasma. The method, boiled down: as §1

[4] abbreviates: 0.5% human plasma, read-out: hGLP1R 0.5% hP.
Setting [5] is: 100% human plasma, read-out: hGLP1R 100% hP.
Where [6] appears, read: 0.5% human plasma, read-out: hGIPR 0.5% hP.
[7] abbreviates: 100% human plasma, read-out: hGIPR 100% hP.
[8] abbreviates: 0.5% human plasma, read-out: hNPY2R 0.5% hP.
Where [9] appears, read: 100% human plasma, read-out: hNPY2R 100% hP.

Take “H-Y[Aib]EGTFTSDYSI[Aib]LEKQAQ[Aib]AFVEWLIK([εLys-γGlu-γGlu-γGlu-γGlu-γGlu-γGlu-C20 diacid])GGPSEGQSLRHYYNWLTRQRY-NH2 [Compound 227, Y-Aib-E-G-T-F-T-S-D-Y-S-I-Aib-L-E-K-Q-A-Q-Aib-A-F-V-E-W-L-I-K(1,3)-GGPSEGQSLRHYYNWLTRQRY-NH2.C20DA-gGlu-gGlu-gGlu-gGlu-gGlu-gGlu-eLys(1,2)]”: the EC50 in experiment [1] (setting [4]) was determined as 0.13 nM; in experiment [1] (setting [5]), 3.07 nM; in experiment [2] (setting [6]), 0.06 nM; in experiment [2] (setting [7]) it was 1.23 nM; in experiment [3] (setting [8]) it was 10.2 nM.
For “H-Y[Aib]EGTFTSDYSI[Aib]LEKQAQ[Aib]AFVEWLIK([εLys-γGlu-γGlu-γGlu-γGlu-γGlu-γGlu-C20 diacid])GGPSEPASLRHYYNWLTRQRY-NH2 [Compound 233, Y-Aib-E-G-T-F-T-S-D-Y-S-I-Aib-L-E-K-Q-A-Q-Aib-A-F-V-E-W-L-I-K(1,3)-GGPSEPASLRHYYNWLTRQRY-NH2.C20DA-gGlu-gGlu-gGlu-gGlu-gGlu-gGlu-eLys(1,2)]”, in that order: 0.17 nM, 1.7 nM, 0.08 nM, 0.75 nM and 12.6 nM.
With “H-Y[Aib]EGTFTSDYSI[Aib]LEKQAQ[Aib]AFVEWLIK([εLys-γGlu-γGlu-γGlu-γGlu-γGlu-γGlu-C20 diacid])GGPSEPQSIRHYYNWLTRQRY-NH2 [Compound 48, Y-Aib-E-G-T-F-T-S-D-Y-S-I-Aib-L-E-K-Q-A-Q-Aib-A-F-V-E-W-L-I-K(1,3)-GGPSEPQSIRHYYNWLTRQRY-NH2.C20DA-gGlu-gGlu-gGlu-gGlu-gGlu-gGlu-eLys(1,2)]”, the EC50 stood at 0.07 nM in experiment [1] (setting [4]), 0.07 nM in experiment [2] (setting [6]), 0.68 nM in experiment [2] (setting [7]) and 35.2 nM in experiment [3] (setting [9]).
As to “H-Y[Aib]EGTFTSDYSI[Aib]LEKQAQ[Aib]AFVEWLIK([εLys-γGlu-γGlu-γGlu-γGlu-γGlu-γGlu-C20 diacid])GGPSEYESLRHYYNWLTRQRY-NH2 [Compound 93, Y-Aib-E-G-T-F-T-S-D-Y-S-I-Aib-L-E-K-Q-A-Q-Aib-A-F-V-E-W-L-I-K(1,3)-GGPSEYESLRHYYNWLTRQRY-NH2.C20DA-gGlu-gGlu-gGlu-gGlu-gGlu-gGlu-eLys(1,2)]”, the EC50 in experiment [1] (setting [4]) worked out at 0.22 nM; in experiment [1] (setting [5]), 8.97 nM; in experiment [2] (setting [6]), 0.14 nM; in experiment [2] (setting [7]) it was 2.35 nM; in experiment [3] (setting [8]), 15.3 nM; in experiment [3] (setting [9]) it was 85.7 nM.
As to “H-Y[Aib]EGTFTSDYSI[Aib]LEKQAQ[Aib]AFVEWLIK([εLys-γGlu-γGlu-γGlu-γGlu-γGlu-γGlu-C20 diacid])GGPSEYVSIRHYYNWLTRQRY-NH2 [Compound 42, Y-Aib-E-G-T-F-T-S-D-Y-S-I-Aib-L-E-K-Q-A-Q-Aib-A-F-V-E-W-L-I-K(1,3)-GGPSEYVSIRHYYNWLTRQRY-NH2.C20DA-gGlu-gGlu-gGlu-gGlu-gGlu-gGlu-eLys(1,2)]”, the EC50 worked out at 0.36 nM in experiment [1] (setting [4]), 0.15 nM in experiment [2] (setting [6]) and 19.1 nM in experiment [3] (setting [9]).
With “H-Y[Aib]EGTFTSDYSI[Aib]LEKQAQ[Aib]AFVEWLIK([εLys-γGlu-γGlu-γGlu-γGlu-γGlu-γGlu-C20 diacid])GGPSEYVSLRHYYNWLTRQRY-NH2 [Compound 217, Y-Aib-E-G-T-F-T-S-D-Y-S-I-Aib-L-E-K-Q-A-Q-Aib-A-F-V-E-W-L-I-K(1,3)-GGPSEYVSLRHYYNWLTRQRY-NH2.C20DA-gGlu-gGlu-gGlu-gGlu-gGlu-gGlu-eLys(1,2)]”, the EC50 in experiment [1] (setting [5]) worked out at 17.2 nM; in experiment [2] (setting [6]), 0.74 nM; in experiment [3] (setting [8]) it was 18.6 nM.
